Source: PMC8019567 (Parasite, 2021)
≈ marks a conversion by molar mass, not a printed value. Where two headings read alike, the source gives them in different places.

Legend:
[1] = Study #2: dose proportionality/linearity after a single topical dose of NexGard Combo at 0.5x, 1x, 2x; format: in vivo, cats
Description: Blood samples were collected prior to treatment and over a period of 91 days after the treatment, as detailed in Table 1. […] Dose proportionality for the three active ingredients was assessed by calculating the linear relationship between AUC or Cmax and the dose using the simple linear regression model.

[2] = in vivo
Description: (§1) All topical treatments were applied on one spot directly on the skin, after parting the hair, in the midline of the neck between the base of the skull and the shoulder blades. The intra-venous injection was given in the cephalic vein.
(§2) All blood samples were collected into lithium heparin tubes and processed into plasma by centrifugation.
(§3) This study was designed to evaluate the main pharmacokinetic parameters (Cmax, Tmax, Clast, Tlast, half-life, AUC, bioavailability) of the three compounds administered topically once in the novel formulation at the recommended minimum dose, and the non-interference of the three compounds between each other.
(§4) Group 2 was treated topically with esafoxolaner alone, formulated with identical solvents/excipients as those of the novel formulation, for non-interference evaluation of esafoxolaner. […] Group 4 was treated intravenously with esafoxolaner for bioavailability calculation of topical esafoxolaner in the novel formulation.
(§5) The cat plasma samples and internal standards were subjected to semi-automated solid phase extraction in a 96-well plate format followed by reversed-phase HPLC with gradient elution. The extracted analytes were quantified by an AB Sciex API 5000 mass spectrometer system using an electrospray interface. […] Chromatograms were integrated by the Analyst® 1.6.2 software and peak areas were determined.
(§6) The validated lower and upper limits of quantitation were 0.2 and 100 ng/mL, respectively. Sample concentrations were determined based on a fortified matrix calibration curve ranging from 0.2 to 100 ng/mL for each analyte with quality control samples, control plasma samples, and acceptance criteria according to EMA and FDA guidelines [4, 7]. Repeatability (precision), accuracy, assay specificity, dilution, recovery and matrix effect, carryover, stability in plasma and all solutions was established.
(§7) Pharmacokinetic (PK) parameters were calculated from individual plasma concentrations using the non-compartmental analysis function of WinNonlin® software (Phoenix 64 Build, version 6.3). The non-compartmental approach was consistent with the extravascular (topical) or IV bolus route of administration.
(§8) The peak drug plasma concentration Cmax and the time from dosing to the maximum concentration values Tmax were obtained directly from plasma concentration versus time data for each cat and then averaged for each topical treatment group. The terminal elimination phase was determined using at least the final three observed concentrations and not including Cmax. The first order rate constant, λz, associated with the terminal log-linear portion of the curve was estimated via linear regression of the log plasma concentration versus time curve. The terminal plasma half-life using ln (2)/λz was calculated for each animal, and then averaged for each treatment group. The area under the concentration versus time curve (AUC) from the time of dosing to the time to the last quantifiable concentration (AUC0−Tlast) was calculated using the linear up, log down trapezoidal method, and extrapolated to infinity (AUC0−inf) using the formula AUC0−Tlast + Clast/λz.
(§9) The systemic clearance of esafoxolaner in plasma (Cls) defined as dose/AUC0−inf, and the volume of distribution at steady state (Vss), which is AUMC0−inf/AUC0−inf × Cls, was calculated from WinNonlin® for the IV esafoxolaner group only. Due to the long terminal plasma half-life of esafoxolaner, each cat was not used as its own control and bioavailability was calculated on the average.

[3] = parameters: method as in PMID 24703069; conditions: topical Broadline; cats; cited from earlier work
in vivo = conditions: topical or ocular, 10 mg/kg
Description: as §1, §2, §3, §4, §5, §6, §7, §8, §9

ear mites = system: ear mites; parameters: method as in PMID 29887026; conditions: off-label in cats, 2.5 mg/kg; cited from earlier work
C. felis = system: C. felis; parameters: method as in internal Sponsor’s data; conditions: plasma level, ref internal Sponsor’s data; cited from earlier work
[4] = system: ticks (Ixodes scapularis); parameters: method as in internal Sponsor’s data; conditions: plasma level, ref internal Sponsor’s data; cited from earlier work
[5] = first (pilot) study; topical esafoxolaner only, twice at a 28-day interval, 23× the maximum exposure dose; cats; cited from earlier work
[6] = Study #2: multiple-dose kinetics, accumulation and time to steady state (five topical doses at 28-day intervals); format: in vivo; conditions: repeated topical NexGard Combo at minimum recommended dose at 4-week intervals; cats
Description: Group 4, the accumulation and time to steady state group, was treated five times at 28-day intervals, topically with NexGard® Combo at the minimum recommended dose. In this group, blood samples were collected prior to each treatment, during the 4 weeks following each treatment, and for 8 weeks after the last treatment, as detailed in Table 1.
Chromatograms were integrated by the Analyst® 1.6.2 software and peak areas were determined.
The validated lower and upper limits of quantitation were 0.2 and 100 ng/mL, respectively. Sample concentrations were determined based on a fortified matrix calibration curve ranging from 0.2 to 100 ng/mL for each analyte with quality control samples, control plasma samples, and acceptance criteria according to EMA and FDA guidelines.
Accumulation ratios were calculated using Cmax and AUC for the three active ingredients after the 1st and 5th dose following five topical doses of the novel formulation.

[7] = Study #1: single-dose pharmacokinetics and non-interference in cats (plasma, LC-MS/MS); conditions: NexGard Combo single topical at minimum recommended dose
Description: as §1, §2, §3, §4, §5, §6, §7, §8, §9

[8] = 0.5× group compared to 1× group
[9] = NexGard Combo single topical 0.5× (esafoxolaner 0.72, praziquantel 5, eprinomectin 0.25 mg/kg), cats, mean
[10] = NexGard Combo single topical 1× (esafoxolaner 1.44, praziquantel 10, eprinomectin 0.5 mg/kg), cats, mean
[11] = NexGard Combo single topical 2× (esafoxolaner 2.88, praziquantel 20, eprinomectin 1 mg/kg), cats, mean

With O=C(C1CCCCC1)N1CC(=O)N2CCc3ccccc3C2C1 (stereo not drawn) [Praziquantel, praziquantel] as the compound, how does the Cmax ([1]; in vivo, topical or ocular, 5 mg/kg) read?
The Cmax was 54.7 ± 28.8 ng/mL.

And the Cmax ([1]; in vivo, topical or ocular, 10 mg/kg)?
The Cmax was 126 ± 87.2 ng/mL.

What about the Cmax ([1]; in vivo, topical or ocular, 20 mg/kg) of the same compound?
Its Cmax is 317 ± 209 ng/mL.

And the “time at which maximum concentrations were reached (range)” value ([2]; cat)?
Its value is 4 to 8 h.

And the “time of last quantifiable plasma concentrations (range)” value ([2]; cat)?
The value was 7 to 42 days.

What about the “bioavailability in the Broadline formulation” value [3] of the same compound?
Its value is 45%.

What about the Cmax (in vivo) of the same compound?
The Cmax was 107 ± 59 ng/mL.

And the Tmax (in vivo)?
The Tmax was 7.01 h.

What about the half-life (in vivo) of the same compound?
Its half-life is 103 h.

Which “acaricidal efficacy against ear mites” value (ear mites) does the source give for O=C(CNC(=O)c1ccc(C2=NOC(c3cc(Cl)cc(C(F)(F)F)c3)(C(F)(F)F)C2)c2ccccc12)NCC(F)(F)F (stereo not drawn) [afoxolaner] here?
The value was “efficacious”.

Which “dose proportionality of PK parameters” value ([1]; in vivo) does the source give for O=C(CNC(=O)c1ccc(C2=NO[C@@](c3cc(Cl)cc(C(F)(F)F)c3)(C(F)(F)F)C2)c2ccccc12)NCC(F)(F)F [Esafoxolaner, esafoxolaner] here?
Its value is “dose-proportional”.

And the “persistence of a quantifiable plasma concentration” value ([1]; in vivo)?
The value was “more than 13 weeks”.

What about the “Vss (volume of distribution)” value [2] of the same compound?
Its value is 4.0 L/kg.

What about the “absolute (topical) bioavailability” value [2] of the same compound?
The value was 47.2%.

What about the “time until which efficacious plasma levels (EC90) were maintained, from 24 h” value [2] of the same compound?
The value was 6-8 weeks.

What about the “AUC0−Tlast” value ([2]; iv, 1.44 mg/kg) of the same compound?
The value was 9586 ± 1985 ng·days/mL.

What about the “AUC0−inf” value ([2]; iv, 1.44 mg/kg) of the same compound?
Its value is 10,542 ± 2029 day × ng/mL.

And the “Cl (systemic clearance)” value ([2]; iv, 1.44 mg/kg)?
Its value is 5.87 ± 1.23 mL/h/kg.

What about the “T1/2 (plasma half-life)” value ([2]; iv, 1.44 mg/kg) of the same compound?
The value was 504 ± 101 h.

And the “Vss (volume of distribution at steady-state)” value ([2]; iv, 1.44 mg/kg)?
The value was 4.016 ± 1.19 L/kg.

And the “half-life, range of individuals” value ([2]; iv, 1.44 mg/kg)?
Its value is 355 to 631 h.

What about the “AUC0−Tlast” value ([2]; topical or ocular, 1.44 mg/kg) of the same compound?
The value was 6368 ± 1665 ng·days/mL.

And the “AUC0−inf” value ([2]; topical or ocular, 1.44 mg/kg)?
The value was 7181 ± 2250 ng·days/mL.

What about the Cmax ([2]; topical or ocular, 1.44 mg/kg) of the same compound?
The Cmax was 218 ± 68 ng/mL.

And the “T1/2 (plasma half-life)” value ([2]; topical or ocular, 1.44 mg/kg)?
Its value is 499 ± 154 h.

What about the Tmax ([2]; topical or ocular, 1.44 mg/kg) of the same compound?
Its Tmax is 90 ± 74.4 h.

What about the “individual plasma half-lives (range)” value ([2]; topical or ocular, 1.44 mg/kg) of the same compound?
Its value is 19.4 to 27.8 days.

And the EC90 (C. felis)?
Its EC90 is 0.0191 ± 0.0021 µg/mL (≈ 0.0305 µM).

What about the EC90 [4] of the same compound?
The EC90 was 0.0431 µg/mL (≈ 0.0689 µM).

And the adverse reactions [5]?
The adverse reactions was “no significant adverse reactions”.

Which results are given for eprinomectin?
AUC0−Tlast Ratio [1, 8]: 0.5; Cmax Ratio [1, 8]: 0.4; dose proportionality of PK parameters ([1]; 0.5× to 2× the minimum dose (esafoxolaner 0.72–2.88, praziquantel 5–20, eprinomectin 0.25–1.0 mg/kg), single topical NexGard Combo): dose-proportional; AUC0−Tlast Ratio ([1]; 2× group compared to 1× group): 2.4; Cmax Ratio ([1]; 2× group compared to 1× group): 2.3; AUC0−Tlast [1, 9]: 53.6 ± 19.9 ng·days/mL; Cmax [1, 9]: 9.44 ± 4.26 ng/mL; AUC0−Tlast [1, 10]: 97.8 ± 37.4 ng·days/mL; Cmax [1, 10]: 24.1 ± 20.8 ng/mL; AUC0−Tlast [1, 11]: 233 ± 133 ng·days/mL; Cmax [1, 11]: 54.3 ± 35.8 ng/mL; dose by which steady state was reached [6]: fifth and five; bioavailability in the Broadline formulation [3]: 31%; mean Tmax [7]: 35 h; time to concentrations below the limit of quantitation, on average ([7]; LLOQ 0.2 ng/mL): 28 days
